Results on one compound are retold here after patent US20240125768A1, “METHODS FOR MODULATING A SRC-1 CONDENSATE” (ETERN BIOPHARMA (SHANGHAI) CO., LTD., priority 2021, published 2024).

“Also recorded” adds a separate entry of the source.

For one test, the target named is T1, SRC-1 phase separation (Homo sapiens, UniProt Q15788).
T1 construct: expressed in transfected cells; host or cells: H1299
In words: High content image of mScarlet-SRC-1 puncta in H1299 cells. Format: cell-based. As to conditions: 20 μM. As for the experimental part: FIG. 7Q illustrates quantification result of high content image data for mScarlet-SRC-1 puncta in H1299 cells treated w/o 20 μM EVG. ***p<0.001.
Eight hours after transfection, H1299 cells expressing mScarlet-SRC-1 were seeded in 24-well glass bottom plate (Cellvis P24-1.5H-N) and EVG was added two hours later. Images were obtained with the Operetta CLSTM high-content cell imaging analysis system (PerkinElmer Inc., Waltham, MA, USA). The 63× objective lens was applied in each condition. Data was analyzed by images collected from over 100 representative fields in each group. The spots quantification was performed based on the area and intensity of the spots through mScarlet channel. GraphPad Prism is used to plot and analyze the high content image results.

The next test deals with SRC-1. Put plainly: Biolayer interferometry (BLI). The class given is binding. Particulars: biotin labeled EVG on streptavidin biosensors, purified SRC-1 protein. The procedure:
FIG. 7R illustrates bio-layer interferometry (BLI) assays were performed with purified SRC-1 protein and EVG. Biotin labeled EVG was immobilized on the streptavidin biosensors and dipped into wells containing increasing concentrations of SRC-1 protein.
The binding between EVG and SRC1 was examined using BLI Octet RED96 (ForteEio Inc., Menlo Park, CA). Streptavidin biosensors (ForteBio Inc.) were pre-soaked (30 min) in assay buffer (20 mM TrisHCl pH8.0, 150 mM NaCl and 1% DMSO), then coated in an assay buffer containing 100 uM EVG-biotin for 7 min. As a control, sensors were incubated in an assay buffer containing 100 uM Biocytin, followed by a 6 min wash with assay buffer containing 1% BSA and 0.1% Tween20. Indicated concentrations of truncated SRC1protein ([…], 0 μg/ml) were diluted in assay buffer containing 1% BSA/0.1% Tween20 and flowed through biosensors coated with Bio-EVG or biocytin for 5 min. A 5 min dissociation was followed. Data was analyzed using OctetRED analysis software.

Test [1] relates to YAP. Put plainly: Western blotting / YAP phostag immunoblotting in SF268 cells. The class given is cell-based, human. Particulars: 20 μM. As for the experimental part:
FIG. 7F illustrates SF268 cells were treated with 20 μM elvitegravir (EVG) or […] (PC) for the indicated times and subjected to western blotting analysis.
FIG. 7G illustrates SF268 cells treated with EVG or PC (fedratinib—an inhibitor of the non-receptor tyrosine kinase JAK2 which affects YAP nuclear translocation and phosphorylation) were examined by YAP phostag immunoblotting.
Background: Immunoblotting shows a protein as a band on a membrane.

Another test has as its system YAP target genes. Put plainly: RNA-seq global gene expression profiles in SF268 cells. The class given is cell-based, human. As to conditions: 20 μM, 24 h. As for the experimental part:
FIG. 7E illustrates SF268 cells treated with EVG were subjected to RNA-seq analysis. GSEA enrichment plots of genes involved in Hippo/YAP signaling.
Total RNA of three biological replicates was extracted from SF268 cells 24 h after treated with 20 μM EVG/DMSO using TRIzol™ Reagent (15596018, Invitrogen). RNAseq libraries were prepared using the Illumina TruSeq RNA Sample Prep kit v2 and sequenced using the Illumina HiSeq Xten platform (150-bp paired-end reads). We mapped the RNA-seq sequencing reads to the human reference transcriptome (GRCh37.71) using HISAT259 version 2.0.1. Differentially expressed genes in elvitegravir-treatment group were identified with the R package DESeq.

The subject of test [2] is YAP. In words: ChIP-qPCR of YAP association on YAP target regions. The class given is cell-based, human. Particulars: DMSO or elvitegravir. As for the experimental part: FIG. 7J illustrates the association of YAP on YAP targets regions (#1:ANKRD1enhancer, #2:PAWRpromoter, #3:NPPBpromoter, #4:CTGF promoter) were analyzed by ChIP-qPCR from cells treated with DMSO or elvitegravir. Data are representative of 3 independent experiments. Error bars indicate the s.e.m. of triplicate qPCR data.
FIG. 7K illustrates the association of YAP on YAP target regions were analyzed by ChIP-qPCR in SF268 cells treated with EVG or DMSO. Error bars show mean±s.e.m. (n=3).
Briefly, cells were crosslinked with 1% formaldehyde (Sigma) in culture medium for 10 min at room temperature, and chromatin from lysed nuclei was sheared to 200-1000 bp fragments using a Bioruptor® Pico (Diagenode SA). ˜50 μg of sheared chromatin and ˜2 μg of antibody were mixed. […] Quantitative real-time PCR was carried out with QuantStudio™ 6 Flex Real-Time PCR Systems (Thermofisher Scientific). The amount of immunoprecipitated DNA in each sample was determined as the fraction of the input, and normalized to the IgG control. […]
Chromatin immunoprecipitation antibodies are listed in Supplementary […] Supplementary Methods. […] Quantitative real-time PCR was carried out with QuantStudio™ 6 Flex Real-Time PCR Systems (Thermofisher Scientific). The amount of immunoprecipitated DNA in each sample was determined as the fraction of the input, and normalized to the IgG control.

Test [3] concerns YAP. In words: Anti-YAP immunofluorescence staining in A549 cells (YAP nuclear translocation). The class given is cell-based. As to conditions: anti-YAP antibody and DAPI. An excerpt:
FIG. 7H illustrates A549 cells treated with DMSO, EVG or PC(Positive compound) were stained with anti-YAP antibody and DAPI. […] Scale bar represents 40 μm.

A further test concerns BEAS-2B cell colonies. Put plainly: BEAS-2B colonies co-expressing SRC-1 and YAP. The class given is cell-based, human. Particulars: SRC-1 and YAP co-expressed BEAS-2B cell colonies. An excerpt: FIG. 7X illustrates the colonies of BEAS-2B cells overexpressing with both YAP and SRC-1 treated w/o EVG.
To explore whether SRC-1 and YAP cooperate in driving tumorigenesis, normal human lung bronchial epithelium cells (BEAS-2B) was transformed with YAP and/or SRC-1.

The test system of the next test is A549 cells. In words: Anti-proliferative effects in SRC-1 knockdown A549 cells. Format: cell-based. Particulars: SRC-1 knockdown vs control. The procedure:
FIG. 7W illustrates the anti-proliferative effects of EVG in SRC1 knockdown and control cells. Data represent mean±s.e.m. (n=3).
After 6 days [or other time period as indicated] culture, cell viability was measured using CellTiter-Glo® Luminescent Cell Viability Assay (Promega, G7572) and DMSO group was used as normalization to calculate half maximal inhibitory concentration (IC50) using Graphpad Prism software.

T1 sequence (Q15788 whole entry): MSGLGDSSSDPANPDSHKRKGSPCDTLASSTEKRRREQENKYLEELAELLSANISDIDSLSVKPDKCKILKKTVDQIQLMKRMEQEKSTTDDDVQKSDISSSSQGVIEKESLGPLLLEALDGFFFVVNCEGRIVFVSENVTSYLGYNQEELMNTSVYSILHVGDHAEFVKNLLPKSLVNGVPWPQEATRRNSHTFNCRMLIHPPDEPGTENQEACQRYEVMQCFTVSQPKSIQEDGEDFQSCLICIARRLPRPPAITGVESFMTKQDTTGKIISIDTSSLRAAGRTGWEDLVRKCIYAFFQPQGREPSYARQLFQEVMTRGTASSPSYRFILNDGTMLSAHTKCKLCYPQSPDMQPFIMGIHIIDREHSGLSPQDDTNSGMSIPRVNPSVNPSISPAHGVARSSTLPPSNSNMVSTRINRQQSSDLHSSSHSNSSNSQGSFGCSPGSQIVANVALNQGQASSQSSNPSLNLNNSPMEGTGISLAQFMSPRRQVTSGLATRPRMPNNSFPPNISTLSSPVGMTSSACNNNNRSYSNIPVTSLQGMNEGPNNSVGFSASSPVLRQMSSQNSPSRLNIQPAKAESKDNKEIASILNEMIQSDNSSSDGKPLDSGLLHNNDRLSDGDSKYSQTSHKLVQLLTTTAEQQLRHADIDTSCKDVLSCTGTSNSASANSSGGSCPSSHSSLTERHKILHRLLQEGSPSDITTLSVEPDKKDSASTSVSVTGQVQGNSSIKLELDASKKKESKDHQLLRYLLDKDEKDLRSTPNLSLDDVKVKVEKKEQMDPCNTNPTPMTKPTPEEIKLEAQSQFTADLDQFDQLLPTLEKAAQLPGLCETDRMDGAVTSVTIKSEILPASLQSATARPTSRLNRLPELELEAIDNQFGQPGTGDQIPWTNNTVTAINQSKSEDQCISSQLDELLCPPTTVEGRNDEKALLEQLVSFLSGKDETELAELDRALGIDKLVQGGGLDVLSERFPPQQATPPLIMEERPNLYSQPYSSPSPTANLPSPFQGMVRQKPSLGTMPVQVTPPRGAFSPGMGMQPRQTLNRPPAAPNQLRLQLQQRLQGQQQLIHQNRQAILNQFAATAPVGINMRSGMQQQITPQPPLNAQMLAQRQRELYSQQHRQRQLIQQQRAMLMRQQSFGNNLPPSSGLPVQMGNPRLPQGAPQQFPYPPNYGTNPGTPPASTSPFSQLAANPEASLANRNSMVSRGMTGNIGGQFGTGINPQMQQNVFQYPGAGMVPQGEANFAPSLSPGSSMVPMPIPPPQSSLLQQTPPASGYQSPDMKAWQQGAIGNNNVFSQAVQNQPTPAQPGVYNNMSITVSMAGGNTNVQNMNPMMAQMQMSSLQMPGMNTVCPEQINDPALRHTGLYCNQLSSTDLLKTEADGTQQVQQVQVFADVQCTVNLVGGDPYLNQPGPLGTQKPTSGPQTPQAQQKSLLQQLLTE

For `COc1cc2c(cc1Cc1cccc(Cl)c1F)c(=O)c(C(=O)O)cn2[C@H](CO)C(C)C` [EVG, 6-[(3-chloro-2-fluorophenyl)methyl]-1-[(2S)-1-hydroxy-3-methylbutan-2-yl]-7-methoxy-4-oxoquinoline-3-carboxylic acid], the “SRC-1 phase separation, high content image (mScarlet-SRC-1 puncta)” value on SRC-1 phase separation is “inhibitory effects”. In addition, the “binding to SRC-1 (BLI)” value in the test with SRC-1 is “directly binds”. Besides, in the test with YAP [1], the “phosphorylation pattern in YAP” value is given as “unaffected”. Further, the “YAP target genes, global gene expression profiles” value with YAP target genes is reported as “downregulates”. For the same compound, the “access of YAP to target genes (association of YAP on YAP target regions)” value in the test with YAP [2] was “excluding the possibility that EVG may block the access of YAP to target genes”. Besides, the YAP nuclear translocation result with YAP [3] is given as “remained in nucleus; also recorded: unaffected”. Moreover, in the test on BEAS-2B cell colonies, the “migratory activity at the outer colony border” value was “dramatically inhibited”. In addition, the “anti-proliferative effects after inducible knockdown of SRC-1” value in the test with A549 cells was “partially resistant”.
